Results reported in patent US20260297542A1, “HERBICIDE RESISTANT PLANTS” (SYNGENTA CROP PROTECTION AG, priority 2023, published 2026).
Where a chain is given by its changes, count along the chain named.

What was measured:
Test in all cases: E. coli hemG growth inhibition by herbicide, AtPPO1 variant
Format in all cases: cell-based
Conditions in all cases: read-out: percentage growth inhibition
AtPPO1 L360C = target: T1, AtPPO1 L360C (Arabidopsis thaliana, UniProt P55826, L360C)
T1 construct: expressed in transfected cells; host or cells: E. coli BL21(DE3) hemG (pET24a, T7 promoter)
T1 sequence (P55826 35-537 L360C): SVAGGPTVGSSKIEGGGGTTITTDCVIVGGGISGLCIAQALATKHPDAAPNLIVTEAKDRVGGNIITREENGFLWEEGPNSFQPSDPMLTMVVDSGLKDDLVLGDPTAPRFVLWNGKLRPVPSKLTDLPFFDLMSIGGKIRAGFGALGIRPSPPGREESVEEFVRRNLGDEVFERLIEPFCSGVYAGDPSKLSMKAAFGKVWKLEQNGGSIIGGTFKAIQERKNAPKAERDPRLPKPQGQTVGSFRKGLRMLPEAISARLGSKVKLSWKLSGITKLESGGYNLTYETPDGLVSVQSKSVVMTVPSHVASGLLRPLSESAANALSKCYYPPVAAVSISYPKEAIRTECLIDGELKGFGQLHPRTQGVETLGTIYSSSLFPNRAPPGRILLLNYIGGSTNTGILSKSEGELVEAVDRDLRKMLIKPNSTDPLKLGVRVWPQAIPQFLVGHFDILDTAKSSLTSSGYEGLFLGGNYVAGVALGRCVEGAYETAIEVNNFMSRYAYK
Procedure, shortened: (§1)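 Read-out is OD600 at 24 h post inoculation, converted to percent growth inhibition relative to DMSO. The hemG-deleted BL21(DE3) host relied on the plasmid-borne AtPPO1 variant, induced with 0.1 mM IPTG, with 6.25 ppm herbicide 0 or E or 0.78 ppm herbicide B present at 37° C.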

AtPPO1 V198W = target: T2, AtPPO1 V198W (Arabidopsis thaliana, UniProt P55826, V198W)
T2 construct: expressed in transfected cells; host or cells: E. coli BL21(DE3) hemG (hemG replaced by CmR), pET24a plasmid
T2 sequence (P55826 35-537 V198W): T1 sequence (P55826 35-537 L360C) with V164W, C326L
Procedure, shortened: as §1

AtPPO1 D448L = target: T3, AtPPO1 D448L (Arabidopsis thaliana, UniProt P55826, D448L)
T3 construct: expressed in transfected cells; host or cells: E. coli BL21(DE3) hemG, pET24a plasmid
T3 sequence (P55826 35-537 D448L): T1 sequence (P55826 35-537 L360C) with C326L, D414L
Procedure, shortened: as §1

AtPPO1 C516Q = target: T4, AtPPO1 C516Q (Arabidopsis thaliana, UniProt P55826, C516Q)
T4 construct: expressed in transfected cells; host or cells: E. coli BL21(DE3) hemG, pET24a plasmid
T4 sequence (P55826 35-537 C516Q): T1 sequence (P55826 35-537 L360C) with C326L, C482Q
Procedure, shortened: as §1

| SMILES | inhibition at 6.25 ppm (AtPPO1 L360C) | inhibition at 6.25 ppm (AtPPO1 V198W) | inhibition at 6.25 ppm (AtPPO1 D448L) | inhibition at 6.25 ppm (AtPPO1 C516Q) | inhibition at 0.78 ppm (AtPPO1 L360C) | inhibition at 0.78 ppm (AtPPO1 V198W) | inhibition at 0.78 ppm (AtPPO1 D448L) | inhibition at 0.78 ppm (AtPPO1 C516Q) |
| --- | --- | --- | --- | --- | --- | --- | --- | --- |
| CC(C)N(C)S(=O)(=O)NC(=O)c1cc(-n2c(=O)cc(C(F)(F)F)n(C)c2=O)c(F)cc1Cl [Herbicide E, saflufenacil] | 33% | 51% | 54% | 51% | – | – | – | – |
| C#CCN1C(=O)C(F)(F)Oc2cc(F)c(-n3c(=O)n(C)c(=S)n(C)c3=O)cc21 [Herbicide B, trifludimoxazin] | – | – | – | – | 25% | 30% | 38% | 18% |
| CCOC(=O)[C@]1(C)CC(c2cc(-n3c(=O)n(C)c(=S)n(C)c3=O)c(F)cc2Cl)=NO1 [Herbicide D, ethyl (5S)-3-[2-chloro-5-(3,5-dimethyl-2,6-dioxo-4-thioxo-1,3,5-triazinan-1-yl)-4-fluoro-phenyl]-5-methyl-4H-isoxazole-5-carboxylate] | 21% | 47% | 38% | 28% | – | – | – | – |
